Measured values from ChEMBL document CHEMBL3351435, “New pyrrole derivatives with potent tubulin polymerization inhibiting activity as anticancer agents including hedgehog-dependent cancer” (J Med Chem, 2014).
pIC50: −log10 of the molar value. Calls of active or inactive are those of the source. No cut-off for these calls is given here.

How the values were obtained:
Tubulin = experiment: Inhibition of tubulin (unknown origin) polymerization incubated 15 mins prior to GTP addition by spectrophotometry; format: protein-complex assay, Homo sapiens
RD = experiment: Cell cycle arrest in human RD cells assessed as accumulation at G2/M phase at 500 nM after 24 hrs by propidium iodide staining-based flow cytometry; format: functional
HepG2 = experiment: Cell cycle arrest in human HepG2 cells assessed as rounded cells at 500 nM after 24 hrs by propidium iodide staining-based flow cytometry; format: functional
[1] = Mean residence time in CD-1 mouse at 5 mg/kg, iv; format: ADME, organism-based; design: dose 5 mg/kg, route intravenous; settings: in vivo
[2] = Cmax in CD-1 mouse at 15 mg/kg, po; format: ADME, organism-based; design: dose 15 mg/kg, route oral; settings: in vivo
Mus musculus = experiment: Oral bioavailability (last) in CD-1 mouse at 15 mg/kg; format: ADME, organism-based; settings: in vivo
CYP1A2 = biological target: T1, CYP1A2 (Homo sapiens, UniProt P05177); experiment: Inhibition of human CYP1A2 using furafylline as substrate at 1 uM; format: ADME; settings: probe furafylline
T1 sequence (P05177 whole entry): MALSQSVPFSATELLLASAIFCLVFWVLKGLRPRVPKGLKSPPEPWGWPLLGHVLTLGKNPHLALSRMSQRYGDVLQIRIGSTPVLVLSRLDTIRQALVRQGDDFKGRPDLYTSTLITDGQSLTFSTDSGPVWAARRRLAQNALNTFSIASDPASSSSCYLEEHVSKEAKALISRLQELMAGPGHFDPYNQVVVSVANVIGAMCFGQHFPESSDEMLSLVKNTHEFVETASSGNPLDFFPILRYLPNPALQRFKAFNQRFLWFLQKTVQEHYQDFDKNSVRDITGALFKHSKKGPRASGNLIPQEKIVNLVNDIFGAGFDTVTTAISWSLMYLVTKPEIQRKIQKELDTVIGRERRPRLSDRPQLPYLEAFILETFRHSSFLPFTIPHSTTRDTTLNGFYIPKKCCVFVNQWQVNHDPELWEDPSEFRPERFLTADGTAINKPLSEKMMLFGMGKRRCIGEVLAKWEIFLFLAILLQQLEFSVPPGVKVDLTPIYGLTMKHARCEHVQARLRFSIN

CYP3A4 = CYP3A4 (Homo sapiens, UniProt P08684); experiment: Inhibition of human CYP3A4 using ketoconazole as substrate at 1 uM; format: ADME; settings: probe ketoconazole
CYP3A4, sequence (P08684 whole entry): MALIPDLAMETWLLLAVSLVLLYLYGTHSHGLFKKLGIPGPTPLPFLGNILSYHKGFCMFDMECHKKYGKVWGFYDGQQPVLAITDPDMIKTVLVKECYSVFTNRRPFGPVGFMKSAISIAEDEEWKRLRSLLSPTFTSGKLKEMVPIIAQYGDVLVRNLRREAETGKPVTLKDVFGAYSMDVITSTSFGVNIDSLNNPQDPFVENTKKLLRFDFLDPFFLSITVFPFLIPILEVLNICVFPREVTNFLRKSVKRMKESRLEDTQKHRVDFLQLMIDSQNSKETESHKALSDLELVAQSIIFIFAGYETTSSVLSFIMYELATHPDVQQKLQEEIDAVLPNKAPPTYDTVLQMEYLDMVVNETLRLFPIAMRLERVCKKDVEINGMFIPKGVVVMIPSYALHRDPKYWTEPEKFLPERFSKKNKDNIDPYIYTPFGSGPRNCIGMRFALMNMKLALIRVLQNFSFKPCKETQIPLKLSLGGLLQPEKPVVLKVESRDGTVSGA

In the case of `COc1cc(C(=O)c2ccn(-c3cccc(N)c3)c2)cc(OC)c1OC`, the pIC50 (Tubulin) was 5.85, the Activity (RD) was “Active” and the Activity (HepG2) was “Active”. It also gave an MRT [1] of 31 min, a Cmax [2] of 1770 ng/mL and an F (Mus musculus) of 49%. For the same compound, the inhibition at 1 µM (CYP1A2) was 66.8% and the inhibition at 1 µM (CYP3A4) was 12.2%.
